Key:
Aiolos = assay: IMiD activity: Aiolos degradation in PBMCs by flow cytometry; format: cell-based; details: human PBMCs, 24 hours; for Dmax: maximum percent Aiolos degradation in the assay; for DC50: compound concentration degrading 50% of Aiolos
Experimental: In addition, Compounds 1-24 were assayed for IMiD activity. Frozen human peripheral blood mononuclear cells (PBMCs) were thawed and treated with DMSO or compound for 24 hours and then fixed and permeabilized using a Foxp3/Transcription Factor Fixation/Permeabilization Kit (eBioscience, 00-5523). Cells were stained with fluorophore-conjugated antibodies against CD20 (Biolegend 302330), CD3 (BD Pharmingen 552127), and Aiolos (Biolegend 371106). An additional set of DMSO-treated PBMCs was stained for CD20, CD3, and an AlexaFluor 647-conjugated mouse IgG1 isotype control antibody (Biolegend 400136). Stained cells were run on an Attune NxT Acoustic Focusing Flow Cytometer (Thermo-Fisher A29004), and data was analyzed using FlowJo (v10.5.3) and GraphPad Prism (v7.00) software. Single lymphocytes were gated for B cells (CD20+CD3-) and T cells (CD3+CD20-), and the geometric mean fluorescence intensity (MFI) of Aiolos was calculated for each population. The MFI of the isotype control was calculated for each population and used to quantify background staining. Percent Aiolos degradation was calculated for each compound-treated sample using the following equation: […]
DC50 is the compound concentration degrading 50% of Aiolos. Dmax is the maximum percent Aiolos degradation in the assay.

[1] = system: Experimental autoimmune encephalomyelitis (EAE); assay: Experimental autoimmune encephalomyelitis (EAE) model; format: in vivo, C57BL/6 mice; details: EAE, 30 mg/kg, spinal cords collected on day 22
Experimental: EAE was induced in C57BL/6 mice by immunization with an emulsion of MOG1-125 in complete Freund's adjuvant (CFA), followed by administration of pertussis toxin in PBS, first on the day of immunization (Day 0) and then again the following day (Day 1).
Dosing of all mice started on Day −1 and continued through Day 22. Fingolimod (FTY720, Gilenya) is the a commonly used positive control in this model.
Statistical significance was determined between vehicle control and treated groups based on the end clinical scores using Wilcoxon's non-parametric test.
Statistical analysis: Demyelination (anti-MBP) with Wilcoxon's non-parametric test; inflammatory foci or apoptosis with two-tailed Student's t-test.

Row | DC50 (Aiolos) [nM] | SMILES | Dmax (Aiolos) [%] | other results
1 | – | CN1CCN([C@@H]2CCCN(c3cnc(C(N)=O)c(Nc4ccc(C5CCN(CC6CCN(c7cnc(C(=O)NC8CCC(=O)NC8=O)nc7)CC6)CC5)cc4)n3)C2)C1=O (mixture of isomers) [Compound 3, 5-(4-((4-(4-((3-carbamoyl-6-((R)-3-(3-methyl-2-oxoimidazolidin-1-yl)piperidin-1-yl)pyrazin-2-yl)amino)phenyl)piperidin-1-yl)methyl)piperidin-1-yl)-N—((RS)-2,6-dioxopiperidin-3-yl)pyrimidine-2-carboxamide] | 3.2 | –
2 | 344 | NC(=O)c1ncc(N2CCCCC2)nc1Nc1ccc2c(c1)CCN(CC1CCN(c3ccc(C(=O)NC4CCC(=O)NC4=O)nc3)CC1)C2 (racemic) [Compound 4, rac-3-[(2-{[1-(6-{[(3R)-2,6-dioxopiperidin-3-yl]carbamoyl}pyridin-3-yl)piperidin-4-yl]methyl}-3,4-dihydro-1H-isoquinolin-6-yl)amino]-5-(piperidin-1-yl)pyrazine-2-carboxamide] | 28.3 | –
3 | 468 | CN1CCN([C@@H]2CCCN(c3cnc(C(N)=O)c(Nc4ccc(C5CCN(CC6CCN(c7ccc(C(=O)NC8CCC(=O)NC8=O)cc7)CC6)CC5)cc4)n3)C2)C1=O (mixture of isomers) [Compound 5, 3-((4-(1-((1-(4-(((RS)-2,6-dioxopiperidin-3-yl)carbamoyl)phenyl)piperidin-4-yl)methyl)piperidin-4-yl)phenyl)amino)-5-((R)-3-(3-methyl-2-oxoimidazolidin-1-yl)piperidin-1-yl)pyrazine-2-carboxamide] | 10.1 | –
4 | – | CN1CCN([C@@H]2CCCN(c3cnc(C(N)=O)c(Nc4ccc(C5CCN(C[C@@H]6CCN(c7ccc8c(c7)n(C)c(=O)n8C7CCC(=O)NC7=O)C6)CC5)cc4)n3)C2)C1=O (mixture of isomers) [Compound 8, 3-((4-(1 (((3 S)-1-(1-(2,6-dioxopiperidin-3-yl)-3-methyl-2-oxo-2,3-dihydro-1H-benzo[d]imidazol-5-yl)pyrrolidin-3-yl)methyl)piperidin-4-yl)phenyl)amino)-5-((R)-3-(3-methyl-2-oxoimidazolidin-1-yl)piperidin-1-yl)pyrazine-2-carboxamide] | 1.0 | –
5 | 96.6 | CN1CCN([C@@H]2CCCN(c3cnc(C(N)=O)c(Nc4ccc(C5CCN(C[C@H]6CC[C@@H](Nc7cccc8c7C(=O)N([C@@H]7CCC(=O)NC7=O)C8=O)CC6)CC5)cc4)n3)C2)C1=O (racemic) [Compound 9, 5-[(3R)-3-(3-methyl-2-oxoimidazolidin-1-yl)piperidin-1-yl]-3-{[4-(1-{[(1 s,4s)-4-{[2-(2,6-dioxopiperidin-3-yl)-1,3-dioxoisoindol-4-yl]amino}cyclohexyl]methyl}piperidin-4-yl)phenyl]amino}pyrazine-2-carboxamide] | 30.8 | –
6 | 596 | CN1CCN([C@@H]2CCCN(c3cnc(C(N)=O)c(Nc4ccc(C5CCN(CC6CCN(c7ccc(C(=O)N[C@@H]8CCC(=O)NC8=O)nc7)CC6)CC5)cc4)n3)C2)C1=O [Compound 2] | 17.9 | –
7 | – | Cn1c(=O)n([C@@H]2CCC(=O)NC2=O)c2ccc(N3CC[C@H](CN4CCC(c5ccc(Nc6nc(N7CCCCC7)cnc6C(N)=O)cc5)CC4)C3)cc21 [Compound 6] | 1.1 | –
8 | – | Cn1c(=O)n([C@@H]2CCC(=O)NC2=O)c2ccc(N3CC[C@@H](CN4CCC(c5ccc(Nc6nc(N7CCCCC7)cnc6C(N)=O)cc5)CC4)C3)cc21 [Compound 7] | 4.6 | –
9 | – | NC(=O)c1ncc(N2CCCCC2)nc1Nc1ccc(C2CCN(CC3CCN(c4ccc(CC5CCC(=O)NC5=O)cn4)CC3)CC2)cc1 (centres unmarked) [Compound 10] | 3.2 | –
10 | – | CN1CCN([C@@H]2CCCN(c3cnc(C(N)=O)c(Nc4ccc(C5CCN(CC6CCN(c7ncc(C(=O)NC8CCC(=O)NC8=O)o7)CC6)CC5)cc4)n3)C2)C1=O (some centres unmarked) [Compound 11] | 1.9 | –
11 | – | CN1CCN([C@@H]2CCCN(c3cnc(C(N)=O)c(Nc4ccc(C5CCN(CC6CCN(c7ccc8c(c7)n(C)c(=O)n8C7CCC(=O)NC7=O)CC6)CC5)cc4)n3)C2)C1=O (some centres unmarked) [Compound 12] | 5.3 | –
12 | 2.89 | CN1CCN([C@@H]2CCCN(c3cnc(C(N)=O)c(Nc4ccc(C5CCN(CC6CCN(c7ccc(OC8CCC(=O)NC8=O)cn7)CC6)CC5)cc4)n3)C2)C1=O (some centres unmarked) [Compound 13] | 4.9 | –
13 | 37.6 | NC(=O)c1ncc(N2CCCCC2)nc1Nc1ccc(N2CCC3(CCN(Cc4ccc5c(c4)C(=O)N(C4CCC(=O)NC4=O)C5=O)CC3)CC2)cc1 (centres unmarked) [Compound 14] | 30.4 | –
14 | 345 | CN1CCN([C@H]2CCCN(c3cnc(C(N)=O)c(Nc4ccc(C5CCN(CC6CCN(c7ccc(C(=O)NC8CCC(=O)NC8=O)nc7)CC6)CC5)cc4)n3)C2)C1=O (some centres unmarked) [Compound 15] | 27.4 | –
15 | – | CN1CCN([C@@H]2CCCN(c3cnc(C(N)=O)c(Nc4ccc(C5(C)CCN(C6CN(Cc7ccc8c(c7)C(=O)N(C7CCC(=O)NC7=O)C8=O)C6)CC5)cc4)n3)C2)C1=O (some centres unmarked) [Compound 16] | 23.6 | –
16 | – | CN1CCN([C@H]2CCCN(c3cnc(C(N)=O)c(Nc4ccc(N5CCN(CC#Cc6cccc7c6CN(C6CCC(=O)NC6=O)C7=O)CC5)cc4)n3)C2)C1=O (some centres unmarked) [Compound 17] | 15.1 | –
17 | 2650 | CN1CCN([C@@H]2CCCN(c3cnc(C(N)=O)c(Nc4ccc(N5CCC6(CCCN(c7ccc8c(c7)C(=O)N(C7CCC(=O)NC7=O)C8=O)C6)CC5)cc4)n3)C2)C1=O (some centres unmarked) [Compound 18] | 28.2 | –
18 | – | CN1CCN([C@@H]2CCCN(c3cnc(C(N)=O)c(Nc4ccc(N5CCN(C(=O)CCOCCCc6ccc7c(c6)C(=O)N(C6CCC(=O)NC6=O)C7)CC5)cc4)n3)C2)C1=O (some centres unmarked) [Compound 19] | 9.1 | –
19 | – | C=CC(=O)N1CCC[C@@H](n2nc(-c3ccc(Oc4ccccc4)cc3)c3c(N)ncnc32)C1 [Ibrutinib, reference compound] | – | Apoptotic cells/section +/− SD [1]: 0.4 +/− 0.7; Inflammatory foci/section +/− SD [1]: 1.0 +/− 1.4; Demyelination score +/− SD ([1]; anti-MBP): 0.4 +/− 0.6

Source: patent US20240336595A1, “BIFUNCTIONAL COMPOUNDS FOR DEGRADING BTK WITH DIMINISHED IMID ACTIVITY” (NURIX THERAPEUTICS, INC., priority 2021, published 2024)
